Reference: publication PMC7589783, “Newly Synthesized Imino-Derivatives Analogues of Resveratrol Exert Inhibitory Effects in Breast Tumor Cells” (International Journal of Molecular Sciences, 2020)
pIC50: −log10 of the molar value. Several values for one entry are separate records, joined by “and”; a condition that tells them apart may be missing. Identical values can stand only once. Entries after “also recorded” stand apart in the source; their conditions may differ. Like-named read-outs stand apart in the source and are kept apart here.

How the values were obtained:
[1] = In vitro bioavailability, dialysis tubing procedure with pepsin and pancreatin digestion; type: in vitro ADME; conditions: for In vitro bioavailability (%) 4 h pH 7.0: after pancreatin digestion (4 h); for In vitro bioavailability (%) 2 h pH 1.0: after pepsin digestion (2 h); for In vitro bioavailability (%) Total 6 h: total after pepsin (2 h) and pancreatin (4 h) digestions
Protocol: In vitro bioavailability studies of compounds 3, 4 (the salt of compound 3) and resveratrol were performed in solutions simulating gastric and intestinal environment through a modified version of the traditional technique of dialysis membranes. The method of the dialysis membrane is divided in two enzymatic digestion phases: A first phase in which the action of pepsin occurs and a second phase in which participates the pancreatin (see experimental section). Bioavailability is defined as the percentage of analyte recovered in the bio-accessible fraction after in vitro digestion, in relation to the original undigested sample, as calculated according to the following equation [32]:Bioavailability (%) = (Bioaccessible content/Total content) × 100
In vitro bioavailability studies were performed according to the dialysis tubing procedure as previously reported in literature.
For this purpose, 100 µL of each tested compound (10 mM in DMSO) were employed and the concentration of each sample was determined using a UV/VIS spectrometer V-530 (Jasco, Cremella (LC), Italy).
The percentages were calculated according to the equations obtained from the prepared calibration curves at pH 1.0 and 7.0, respectively, for the two tested molecules.
The experiments were carried out in triplicate.

SkBr3 cells = assay: TUNEL assay in SkBr3 cells; type: cell-based, human
Protocol: (§1) Cell apoptosis was determined by TdT-mediated dUTP Nick-End Labeling (TUNEL) assay, conducted using DeadEnd Fluorometric TUNEL System (Promega, Milan, Italy) and performed according to the manufacturer’s instructions. […] After fixation, cells were permeabilized in 0.2% Triton X-100 solution in PBS for 5 min. After washing twice with washing buffer for 5 min, the cells were covered with equilibration buffer at room temperature for 5–10 min. The labeling reaction was performed using terminal deoxynucleotidyl transferase end-labeling TdT and fluorescein-dUTP cocktail for each sample and incubated for 1 h at 37 ◦C where TdT catalyzes the binding of fluorescein-dUTP to free 3′OH ends in the nicked DNA. After rinsing, cells were washed with 2 × SSC solution buffer and subsequently incubated with 4′,6-Diamidino-2-Phenylindole (DAPI, Sigma-Aldrich, Milan, Italy) to stain nuclei and analyzed using the Cytation 3 Cell Imaging Multimode Reader (BioTek, Winooski, VT, USA). Statistical analysis was done using ANOVA followed by Newman–Keuls’ testing to determine differences in means. p < 0.05 was considered as statistically significant.

human topoisomerase II = target: T1, human topoisomerase II (Homo sapiens, UniProt P11388); assay: Human topoisomerase II (hTopoII) decatenation assay; type: biochemical; conditions: 50 μM
T1 construct: purchased TopoGEN, Port Orange, FL, USA
T1 sequence (P11388 whole entry): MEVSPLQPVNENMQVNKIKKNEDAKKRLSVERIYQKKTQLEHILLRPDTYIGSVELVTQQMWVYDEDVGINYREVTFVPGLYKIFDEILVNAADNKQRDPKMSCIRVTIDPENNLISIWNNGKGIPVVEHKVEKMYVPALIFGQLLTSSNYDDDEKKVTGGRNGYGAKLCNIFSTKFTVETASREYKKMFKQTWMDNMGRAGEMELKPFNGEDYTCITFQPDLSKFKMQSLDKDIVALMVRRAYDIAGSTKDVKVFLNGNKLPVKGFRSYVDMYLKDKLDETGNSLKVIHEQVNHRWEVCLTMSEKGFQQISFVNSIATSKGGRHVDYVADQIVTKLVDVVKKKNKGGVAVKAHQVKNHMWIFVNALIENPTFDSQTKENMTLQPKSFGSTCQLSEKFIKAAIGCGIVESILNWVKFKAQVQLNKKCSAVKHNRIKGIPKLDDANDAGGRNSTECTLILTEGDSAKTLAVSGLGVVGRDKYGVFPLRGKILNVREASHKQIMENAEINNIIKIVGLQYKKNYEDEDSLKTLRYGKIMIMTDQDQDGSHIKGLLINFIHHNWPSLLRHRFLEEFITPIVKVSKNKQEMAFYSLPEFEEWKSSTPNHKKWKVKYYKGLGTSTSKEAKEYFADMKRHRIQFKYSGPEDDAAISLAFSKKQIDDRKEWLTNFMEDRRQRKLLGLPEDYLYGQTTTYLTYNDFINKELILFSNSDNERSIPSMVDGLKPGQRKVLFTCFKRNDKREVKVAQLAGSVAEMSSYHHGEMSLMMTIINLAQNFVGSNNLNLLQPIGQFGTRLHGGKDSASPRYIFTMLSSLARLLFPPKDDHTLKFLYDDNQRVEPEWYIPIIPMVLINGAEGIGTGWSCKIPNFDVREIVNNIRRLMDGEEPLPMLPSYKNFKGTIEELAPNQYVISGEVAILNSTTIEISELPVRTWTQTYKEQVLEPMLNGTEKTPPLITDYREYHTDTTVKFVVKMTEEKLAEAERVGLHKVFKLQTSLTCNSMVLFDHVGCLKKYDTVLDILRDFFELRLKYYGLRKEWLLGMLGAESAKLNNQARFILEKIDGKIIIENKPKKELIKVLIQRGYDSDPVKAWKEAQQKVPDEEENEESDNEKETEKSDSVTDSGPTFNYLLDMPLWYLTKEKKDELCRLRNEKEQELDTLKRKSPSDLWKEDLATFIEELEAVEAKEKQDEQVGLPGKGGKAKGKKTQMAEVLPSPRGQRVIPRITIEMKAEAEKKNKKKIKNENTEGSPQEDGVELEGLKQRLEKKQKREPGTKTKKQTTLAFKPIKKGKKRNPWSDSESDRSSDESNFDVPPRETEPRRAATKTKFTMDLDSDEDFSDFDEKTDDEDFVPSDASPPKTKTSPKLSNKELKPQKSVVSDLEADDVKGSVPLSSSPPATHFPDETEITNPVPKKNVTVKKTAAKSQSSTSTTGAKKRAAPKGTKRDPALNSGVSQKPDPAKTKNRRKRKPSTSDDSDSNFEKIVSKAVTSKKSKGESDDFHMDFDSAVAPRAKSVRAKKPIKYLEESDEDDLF
Protocol: Human topoisomerase II decatenation assays were carried out incubating the human topoisomerase II (TopoGEN, Port Orange, FL, USA) with kinetoplast DNA (used as substrate) and all the tested compounds, according to the guidelines of the manufacturer (TopoGEN, Port Orange, FL, USA), with some modifications.

[2] = test system: human embryonic kidney 293 (HEK293) cells; assay: MTT cell viability assay in HEK293 cells; type: cell-based; conditions: for IC50: Homo sapiens, HEK293, 48 h treatment, MTT assay, read-out: IC50 (µM) ± S.D. HEK293; for Anti-proliferative / inhibitory effects in non-tumoral HEK293 cells: result in words
Protocol: (§2) SkBr3 cells were maintained in RPMI-1640 (Life Technologies, Milan, Italy) without phenol red, supplemented with 5% fetal bovine serum (FBS) and 100 μg/mL penicillin/streptomycin (Life Technologies, Milan, Italy). MCF-7 and HEK-293 cells were maintained in DMEM (Dulbecco’s modified Eagle’s medium) (Life Technologies, Milan, Italy) with phenol red, with a supplement of 5% FBS and 100 μg/mL of penicillin/streptomycin.
(§3) The effects of each compound on cell viability were determined by the MTT [3-(4,5-dimethylthiazol-2-yl)-2,5-diphenyltetrazolium bromide] assay, as previously reported. Cells were seeded in quadruplicate in 96-well plates in regular growth medium and grown until 70–80% confluence. […] Relative cell viability was determined by MTT assay according to the manufacturer’s protocol (Sigma-Aldrich, Milan, Italy). Mean absorbance for each drug dose was expressed as a percentage of the control untreated well absorbance and plotted versus drug concentration. IC50 values represent the drugs concentration able to reduce the cells viability of 50% respect to the untreated control cells (vehicle).

[3] = test system: MCF-7 breast cancer cells; assay: MTT cell viability assay in MCF-7 cells; type: cell-based; conditions: Homo sapiens; for IC50: MCF7, 48 h treatment, read-out: IC50 (µM) ± S.D. MCF-7
Protocol: as §2, §3

MCF-7 cells = assay: TUNEL assay in MCF-7 cells; type: cell-based, human
Protocol: as §1

[4] = test system: SkBr3 breast cancer cells; assay: MTT cell viability assay in SkBr3 cells; type: cell-based; conditions: Homo sapiens; for IC50: SK-BR-3, 48 h treatment, read-out: IC50 (µM) ± S.D. SkBr3
Protocol: as §2, §3

recombinant human topo I = target: T2, recombinant human topo I (Homo sapiens, UniProt P11387); assay: Human topoisomerase I (hTopoI) relaxation assay; type: biochemical; conditions: 50 μM
T2 construct: purchased TopoGEN, Port Orange, FL, USA
T2 sequence (P11387 1-765): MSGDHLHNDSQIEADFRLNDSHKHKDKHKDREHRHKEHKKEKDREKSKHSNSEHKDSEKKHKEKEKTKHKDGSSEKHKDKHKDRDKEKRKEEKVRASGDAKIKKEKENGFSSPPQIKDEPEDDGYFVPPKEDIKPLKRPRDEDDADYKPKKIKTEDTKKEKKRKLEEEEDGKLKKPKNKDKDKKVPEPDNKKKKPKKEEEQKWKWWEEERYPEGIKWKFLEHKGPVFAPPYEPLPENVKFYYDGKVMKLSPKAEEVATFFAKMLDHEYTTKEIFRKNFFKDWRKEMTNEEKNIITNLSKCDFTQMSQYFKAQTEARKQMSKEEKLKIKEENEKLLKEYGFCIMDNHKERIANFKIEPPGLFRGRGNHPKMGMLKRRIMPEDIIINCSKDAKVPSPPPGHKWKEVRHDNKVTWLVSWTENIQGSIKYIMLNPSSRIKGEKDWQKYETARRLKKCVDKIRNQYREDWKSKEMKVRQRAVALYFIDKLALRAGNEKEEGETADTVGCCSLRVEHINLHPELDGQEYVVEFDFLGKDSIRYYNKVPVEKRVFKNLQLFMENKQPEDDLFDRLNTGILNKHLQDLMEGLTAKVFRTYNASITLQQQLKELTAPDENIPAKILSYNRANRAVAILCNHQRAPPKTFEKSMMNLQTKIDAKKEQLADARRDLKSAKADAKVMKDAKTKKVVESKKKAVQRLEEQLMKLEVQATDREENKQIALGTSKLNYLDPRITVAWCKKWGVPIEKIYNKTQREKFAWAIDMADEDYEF
Protocol: Human topoisomerase I relaxation assays were performed incubating the supercoiled pHOT1 (used as substrate) with the recombinant human topo I (TopoGEN, Port Orange, FL, USA) and all the tested compounds, according to the guidelines of the manufacturer (TopoGEN, Port Orange, FL, USA), with some modifications.

[5] = 50 µM for 48 h (data not shown)

Row | In vitro bioavailability (%) 4 h pH 7.0 [1] | In vitro bioavailability (%) 2 h pH 1.0 [1] | In vitro bioavailability (%) Total 6 h [1] | Inhibition of hTopoII activity (kDNA decatenation) (human topoisomerase II) | IC50 [3] [µM] | IC50 [4] [µM] | Inhibition of hTopoI (relaxation of supercoiled DNA) (recombinant human topo I) | Compound | Percentage of TUNEL-positive cells, SkBr3 (SkBr3 cells; 10 μM for 24 h, versus vehicle) | IC50 [2] [µM] | Anti-proliferative / inhibitory effects in non-tumoral HEK293 cells [2] | Percentage of TUNEL-positive cells, MCF-7 (MCF-7 cells; 10 μM for 24 h, versus vehicle) | TUNEL staining, SkBr3 (SkBr3 cells; [5]) | pIC50 ([3]; MCF7, treatment time not given, read-out: IC50, cytotoxic activity, MCF-7) | TUNEL staining, MCF-7 (MCF-7 cells; [5]) | pIC50 ([4]; SK-BR-3, treatment time not given, read-out: IC50, cytotoxic activity, SkBr3)
1 | 31% and 31 ± 1.1% | 16% and 16 ± 0.7% | 47% and 47 ± 1.6% | able to inhibit | 12 | 15 | no inhibition of hTopoI was observed | O=C(O)c1ccc(/N=C/c2cc(O)ccc2O)cc1 [Compound 3, (E)-4-(2,5-dihydroxybenzylidene)-imino-benzoic acid] | increased the percentage | > 90 | did not elicit inhibitory effects; also recorded: did not induce inhibitory effects | increased the percentage | – | – | – | –
2 | 28% and 28 ± 0.9% | 17% and 17 ± 0.8% | 45% and 45 ± 1.3% | able to inhibit | – | – | no inhibition of hTopoI was observed | O=C(O)c1ccc(/N=C/c2cc(O)ccc2O)cc1 [Compound 4, (E)-4-(2,5-dihydroxybenzylidene)-imino-sodium benzoate] | – | – | did not elicit anti-proliferative effects; also recorded: did not induce inhibitory effects | – | positive for TUNEL staining | 4.30 | positive for TUNEL staining | 4.21
3 | – | – | – | – | > 90 | > 90 | – | O=C(O)c1ccc(/N=C/c2cc(O)cc(O)c2)cc1 [Compound 6, (E)-4-(3,5-dihydroxybenzylidene)-imino-benzoic acid] | – | > 90 | – | – | – | – | – | –
4 | 23 ± 0.8% | 12 ± 0.6% | 35% and 35 ± 1.1% | inhibited the hTopoII | > 90 | > 90 | no inhibition of hTopoI was observed | Oc1ccc(C=Cc2cc(O)cc(O)c2)cc1 [resveratrol, 3, 4′,5-trihydroxy-stilbene] | – | > 90 | – | – | – | – | – | –
